The values that follow come from patent US20220110910A1, “CANNABINOID-CONTAINING COMPLEX MIXTURES FOR THE TREATMENT OF CYTOKINE RELEASE SYNDROME WHILE PRESERVING KEY ANTI-VIRAL IMMUNE REACTIONS” (GBS Global BioPharma, Inc., priority 2020, published 2022).

Entries after “also recorded” stand apart in the source; their conditions may differ.

Assay type in all cases: cell-based, human
Assay [1] concerns CD4+ T cells. In words: T cell proliferation (CFSE, FlowJo Proliferation tool). The following applies: 0.01 μM. On the procedure: (§1) In immunological activity experiments, PBMC suspensions were pre-treated with cannabinoid and/or terpene compounds for 30 minutes before treatment with designated stimuli, cultured in 96 well tissue culture plates, and incubated at 37° C. and 5.0% CO2. In pDC experiments, cell suspensions were stimulated with CpG-ODN Type A 2216 (15 μg/mL) (InvivoGen©, San Diego, Calif.) following treatment with cannabinoids. Golgi transport inhibitors Monensin (2 μM)/Brefeldin A (3.0 μg/mL) (Thermo Fisher Scientific, Waltham, Mass.) were added to culture 3 hours post-stimulation, and after 7 hours of stimulation cells were harvested for evaluation by flow cytometry for IFNα and TNFα. In monocyte experiments, cell suspensions were stimulated with 1000 ng/mL LPS (S. typhosa, Sigma Aldrich, St. Louis, Mo.) for 18 hours before harvesting supernatants for IL-1β, Golgi blocked for 6 hours before harvesting cells for assessment of IL-6, or cultured for 48 hours before harvesting cells for assessment of HLA-DR, CD80, and CD86. In phagocytosis experiments, cell suspensions were treated with 3.0 mg/mL of pHrodo Green BioParticles (Thermo Fisher). In T cell experiments, cells were plated on 96 well tissue culture plates pre-coated with 5.0 μg/mL anti-CD3 (clone UCHT1, Biolegend, San Diego, Calif.) and stimulated with 5.0 μg/mL anti-CD28 (clone 28.2, Biolegend) and supplemented with 5.0 ng/mL IL-2 (Roche Applied Science, Indianapolis, Ind.). CD25 and CD69 were assessed by flow cytometry 24 hours post-stimulation. In proliferation experiments, cell suspensions were incubated with CFSE Cell Division Tracker (Biolegend) according to manufacturer protocols, harvested 4 days post-stimulation and assessed by flow cytometry. Cell suspensions were further stimulated with 50 ng/mL phorbol 12-myristate 13-acetate (PMA) and 1000 ng/mL ionomycin (Io) at 4 days post-stimulation for 18 hours, Golgi blocked for 6 hours, and harvested for IL-4 and IFNγ assessment by flow cytometry.
(§2) In brief, pDC, monocyte and T cell were identified using antibodies directed against unique epitopes for each cell type and analyzed by flow cytometry. Cells were fixed in BD CytoFix and resuspended in FACS buffer for extracellular staining. […] For intracellular staining, fixed cells were permeabilized in BD Permwash and incubated with appropriate antibodies and 7% human AB serum. pDC were identified as CD303+and assessed for intracellular IFNα and TNFα. Monocytes were identified as CD14+ and assessed for extracellular HLA-DR, CD80, CD86, and intracellular TNFα and IL-6. […] T cells were identified as CD3+ and T cell subsets identified by CD4+ and CD8+ and assessed for extracellular CD25 and CD69 and intracellular IFNγ and IL-4. […]

The subject of assay [2] is CD8+ T cells. The description is as above. To be noted: 0.01 μM. On the procedure: as §1, §2
In assay [3] the test system is monocytes. In words: TNFα+ monocytes after CpG-ODN stimulation (intracellular staining). The following applies: 10 μM; CpG-ODN 15 μg/mL, 6 hours; vs vehicle. On the procedure:
FIGS. 9A-9B reveal the TNFα decreasing potential of cannabinol (CBN). […] PBMC were isolated from human peripheral blood and pre-treated with the indicated concentrations of cannabinol for 30 minutes, followed by stimulation with 15 μg/mL CpG-ODN for 6 hours (FIG. 9A). Cells were non-enzymatically released from culture plates and assessed for the percentage of TNFα+ monocytes (FIG. 9A) by intracellular staining. For FIG. 9B, PBMC were isolated from human peripheral blood and pre-treated with the indicated concentrations of cannabinol for 30 minutes, followed by treatment with 3.0 mg/mL of pHrodo Green BioParticles (FIG. 9B). In FIG. 9B, cells were treated with 3.0 mg/mL of pHrodo Green BioParticles and assessed for phagocytosis monocytes by flow cytometry within 2 hours. Data are normalized to each donor's vehicle control when appropriate and presented as mean±SEM. N=4-6 donors per treatment group. […] *p<0.05 when compared to VH (FIG. 9A), or **p<0.01 when compared to VH (FIG. 9B), by repeated measure one-way ANOVA with Dunnett's posttest.
as §2

Assay [4] has as its system monocytes. The assay is described as follows: IL-1β ELISA in supernatants of LPS-stimulated PBMC. To be noted: 10 μM; LPS 1000 ng/mL; vs vehicle. The protocol: as §1
To quantify IL-1β produced by monocytes, supernatants were collected from LPS stimulated cell suspensions after 18 hours and frozen at −80° C. ELISA MAX from Biolegend was used as per manufacturer protocol to quantify IL-1β to a sensitivity of […].

Assay [5] concerns plasmacytoid dendritic cells (pDC). In words: IFNα and TNFα in pDC of PBMC stimulated with CpG-ODN (intracellular staining). To be noted: vs vehicle; for IFNα production by pDC: 0.01, 0.1, and 1.0 μM. The protocol:
as §1
(§3) In brief, pDC, monocyte and T cell were identified using antibodies directed against unique epitopes for each cell type and analyzed by flow cytometry. Cells were fixed in BD CytoFix and resuspended in FACS buffer for extracellular staining. To determine the changes in cell viability in mixed PBMC, gates were first set on singlet events, then CD45+ cells, then populations identified by CD3+ (T cells) and CD14+ (monocytes), and then 7-AAD- for viability. Likewise, for pDC viability experiments, pDC were identified as CD303+ and viable by exclusion of Near IR L/D stain (Life Technologies, Carlsbad, Calif.). For intracellular staining, fixed cells were permeabilized in BD Permwash and incubated with appropriate antibodies and 7% human AB serum. pDC were identified as CD303+and assessed for intracellular IFNα and TNFα. Monocytes were identified as CD14+ and assessed for extracellular HLA-DR, CD80, CD86, and intracellular TNFα and IL-6. In phagocytosis experiments, PBMC were identified as CD45+ and monocytes were identified based on side scatter and then phagocytosing monocytes. T cells were identified as CD3+ and T cell subsets identified by CD4+ and CD8+ and assessed for extracellular CD25 and CD69 and intracellular IFNγ and IL-4. To analyze T cell proliferation, FlowJo 10.0 proliferation tool was used by setting the undivided peak of CFSE stained cells in each sample.

Assay [6] has as its system monocytes. In words: Co-stimulatory markers HLA-DR, CD80, CD86 on monocytes after LPS. The following applies: 2 days. On the procedure: as §1, §3
Assay [7] has as its system monocytes. In words: IL-6+ monocytes after LPS stimulation (intracellular staining). To be noted: 10 μM; LPS 1000 ng/mL; vs vehicle. On the procedure:
as §1, with “In T cell experiments, cells were plated on 96 well tissue culture plates pre-coated with 5.0 μg/mL anti-CD3 (clone UCHT1, Biolegend, San Diego, Calif.) and stimulated with 5.0 μg/mL anti-CD28 (clone 28.2, Biolegend) and supplemented with 5.0 ng/mL IL-2 (Roche Applied Science, Indianapolis, Ind.).” left out, “Cell suspensions were further stimulated with 50 ng/mL phorbol 12-myristate 13-acetate (PMA) and 1000 ng/mL ionomycin (Io) at 4 days post-stimulation for 18 hours, Golgi blocked for 6 hours, and harvested for IL-4 and IFNγ assessment by flow cytometry.” left out
as §2, with “cytometry.” for “cytometry. Cells were fixed in BD CytoFix and resuspended in FACS buffer for extracellular staining.”

The test system of assay [8] is monocytes. The assay is described as follows: Phagocytosis of pHrodo Green BioParticles by monocytes. To be noted: 10 μM; pHrodo Green BioParticles 3.0 mg/mL; vs vehicle. The protocol: as §1, with “In T cell experiments, cells were plated on 96 well tissue culture plates pre-coated with 5.0 μg/mL anti-CD3 (clone UCHT1, Biolegend, San Diego, Calif.) and stimulated with 5.0 μg/mL anti-CD28 (clone 28.2, Biolegend) and supplemented with 5.0 ng/mL IL-2 (Roche Applied Science, Indianapolis, Ind.).” left out, “Cell suspensions were further stimulated with 50 ng/mL phorbol 12-myristate 13-acetate (PMA) and 1000 ng/mL ionomycin (Io) at 4 days post-stimulation for 18 hours, Golgi blocked for 6 hours, and harvested for IL-4 and IFNγ assessment by flow cytometry.” left out
as §2, with “cytometry.” for “cytometry. Cells were fixed in BD CytoFix and resuspended in FACS buffer for extracellular staining.”

The test system of assay [9] is CD8+ T cells. In words: Intracellular IFNγ after anti-CD3/anti-CD28 stimulation and PMA/ionomycin. To be noted: vs vehicle. The protocol:
as §1, §2

For assay [10], the system named is CD4+ T cells. The assay is described as follows: Intracellular IFNγ and IL-4 after anti-CD3/anti-CD28 stimulation and PMA/ionomycin. To be noted: vs vehicle. On the procedure: as §1, §2
Where [11] appears, read: indicated concentrations (0.001-10 μM).

For the compound `CCCCCc1cc(O)c2c(c1)OC(C)(C)[C@@H]1CCC(C)=C[C@@H]21` [THC, (6aR,10aR)-delta-9-tetrahydrocannabinol, reference compound], in the assay with CD4+ T cells [1], the “proliferation of CD4+ T cells” value is reported as “significantly increased”. Also, in the assay on CD8+ T cells [2], the “proliferation of CD8+ T cells” value is given as “significantly increased”. In addition, in the assay with monocytes [3], the TNFα in monocytes entry was “significantly decreased”. The IL-1β in monocytes result with monocytes [4] is reported as “significantly decreased”. Besides, in assay [5] (10 μM, CpG-ODN 15 μg/mL), the “IFNα in plasmacytoid dendritic cells (pDC)” value was “significantly decreased” and the “TNFα in plasmacytoid dendritic cells (pDC)” value is given as “significantly decreased”. Moreover, the “CD80+ co-stimulatory marker in monocytes” value with monocytes [6] (10 μM, vs vehicle) was “significantly decreased”. In addition, in the assay with monocytes [6] (setting [11]), the “CD86+ co-stimulatory marker in monocytes” value is “did not cause a statistically significant change” and the “HLA-DR+ co-stimulatory marker in monocytes” value is reported as “did not cause a statistically significant change”.
For `C=C(C)[C@@H]1CCC(C)=C[C@H]1c1c(O)cc(CCCCC)cc1O` [CBD, cannabidiol, reference compound], the IL-6 in monocytes result in the assay with monocytes [7] is given as “significantly decreased”. Besides, the phagocytosis by monocytes entry in the assay with monocytes [8] is “reduced; also recorded: significantly decreased”. The IL-1β in monocytes entry in the assay on monocytes [4] was “significantly decreased”.
As for `C/C(=C\CO)CCC[C@H](C)CCC[C@H](C)CCCC(C)C` [Phytol A, phytol], in the assay on CD8+ T cells [9] (0.001 μM), the “IFNγ in CD8+ T cells” value is “not statistically significant”. Besides, in the assay on CD4+ T cells [10] (0.001 μM), the “IFNγ in CD4+ T cells” value is reported as “significantly decreased”.
As to `CC1=CCC2CC1C2(C)C` (stereo not drawn) [α-Pinene, α-pinene], the “IFNα production by pDC” value is recorded as “significantly suppressed” in [5] (CpG-ODN) and “significantly decreased” in [5] (CpG-ODN, listed as Alpha-Pinene). The “TNFα production by pDC” value in assay [5] (0.1 and 1.0 μM, CpG-ODN) is on record as “significantly suppressed”.
For the compound `CCCCCc1cc(O)c2c(c1)OC(C)(C)c1ccc(C)cc1-2` [CBN, cannabinol], the “IFNγ in CD8+ T cells” value with CD8+ T cells [9] (0.001-0.1 μM) is given as “significantly decreased”. Also, the phagocytosis by monocytes result in the assay with monocytes [8] was “decreasing; also recorded: significantly decreased”. For the same compound, the TNFα in monocytes entry in the assay with monocytes [3] was “significantly decreased”. The “IFNγ in CD4+ T cells” value in the assay on CD4+ T cells [10] (0.001-0.1 μM) was “significantly decreased”.
